Measured values published in PMC12348660, “Synthesis, Characterization, HSA/DNA Binding, and Cytotoxic Activity of [RuCl2(η^6-p-cymene)(bph-κN)] Complex” (Molecules, 2025).

Target: T1, human serum albumin (HSA) (Homo sapiens, UniProt P02768)
T1 construct: gene ALB
Assay: intrinsic tryptophan fluorescence quenching titration (Stern-Volmer, double-log), […]-310 K
Format: binding
Details: read-out: Kb [M^-1] (converted)

T1 sequence (P02768 25-609): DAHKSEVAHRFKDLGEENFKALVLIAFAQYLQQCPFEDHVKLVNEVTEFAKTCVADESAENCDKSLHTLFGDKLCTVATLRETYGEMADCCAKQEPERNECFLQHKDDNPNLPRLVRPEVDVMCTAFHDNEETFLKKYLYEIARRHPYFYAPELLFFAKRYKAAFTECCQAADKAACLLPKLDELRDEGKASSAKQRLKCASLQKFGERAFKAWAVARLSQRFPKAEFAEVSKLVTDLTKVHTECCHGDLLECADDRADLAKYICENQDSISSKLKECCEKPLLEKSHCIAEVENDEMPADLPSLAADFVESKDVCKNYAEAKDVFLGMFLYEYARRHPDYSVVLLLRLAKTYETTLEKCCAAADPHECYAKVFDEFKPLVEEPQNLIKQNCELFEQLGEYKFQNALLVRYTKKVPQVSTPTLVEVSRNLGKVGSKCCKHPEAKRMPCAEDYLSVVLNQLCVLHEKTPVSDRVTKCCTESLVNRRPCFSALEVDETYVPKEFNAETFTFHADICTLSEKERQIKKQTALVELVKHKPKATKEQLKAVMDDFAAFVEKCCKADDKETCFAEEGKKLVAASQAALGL

dichlorido((diphenylmethylidene)hydrazine-κN)(η^6-p-cymene)ruthenium(II) [compound 1]
Kd: 60.6 µM
